These results are taken from patent US7626031B2, “Substituted 3-(diarylmethylene)indolin-2-ones and methods of their use” (Symphony Evolution, Inc., priority 2002, dated 2009).

For one assay, the target named is Fyn (Homo sapiens, UniProt P06241). Kind of assay: Kinase assay, Fyn. In kind it is biochemical. The method, then:
(§1) Kinase activity and compound inhibition are investigated using one or more assay formats. The ATP concentrations for each assay are selected to be close to the Michaelis-Menten constant (KM) for each individual kinase. Dose-response experiments are performed at 10 different inhibitor concentrations in a 384-well plate format. […] Exemplary kinase assays are described below. KDR Assay

For a further assay, the target named is PDGFR alpha (Homo sapiens, UniProt P16234). The assay can be described thus: Kinase assay, PDGFR alpha (33P-ATP incorporation or luciferase-coupled ATP consumption). In kind it is biochemical. The following applies: read-out: PDGF-R-A IC50. A digest of the protocol:
(§2)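 Kinase activity measured either by γ-33P ATP incorporation into immobilized substrate (MBP or pEY) with scintillation counting, or by luciferase-based ATP consumption with pEY. Enzyme 10 or 20 nM; ATP near each kinase's KM (e.g. 10 or 30 μM); 1 h at room temperature, 1% DMSO, 10-point dose-response.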

Another assay deals with EGFR (Homo sapiens, UniProt P00533). The assay can be described thus: Kinase assay, EGFR (33P-ATP incorporation or luciferase-coupled ATP consumption). In kind it is biochemical. An outline of the steps:
as §2

In assay [1] the target is T1, KDR (baculovirus expressed human KDR kinase domain D807-V1356) (Homo sapiens, UniProt P35968).
T1 construct: human KDR kinase domain D807-V1356; host or cells: baculovirus expression system
The assay can be described thus: biochemical. A digest of the protocol:
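Baculovirus human KDR kinase domain (D807–V1356) with ATP near its KM; 10-point dose-response, 4 h at ambient temperature. Activity taken as percent ATP remaining, detected by luciferase–luciferin chemiluminescence.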

The target of the next assay is EphA2 (Homo sapiens, UniProt P29317). Kind of assay: Kinase assay, EphA2 (33P-ATP incorporation or luciferase-coupled ATP consumption). It is filed as biochemical. An outline of the steps:
as §2

The target in the next assay is FGFR1 (Homo sapiens, UniProt P11362). The assay can be described thus: Kinase assay, FGFR1 (33P-ATP incorporation or luciferase-coupled ATP consumption). In kind it is biochemical. A digest of the protocol: as §2
Another assay has as its target Flt-1 (Homo sapiens, UniProt P17948). Kind of assay: Kinase assay, Flt-1 (33P-ATP incorporation or luciferase-coupled ATP consumption). It is filed as biochemical. The following applies: read-out: Flt1 IC50. The protocol:
Kinase assays were performed by measurement of incorporation of γ-^33P ATP into immobilized myelin basic protein (MBP). […] Plates were washed 3× with 100 μl TBS. […] Compound dilutions were performed in DMSO and added to assay wells to a final DMSO concentration of 1%. Each data point was measured in duplicate, and at least two duplicate assays were performed for each individual compound determination. Enzyme was added to final concentrations of 10 nM or 20 nM, for example. A mixture of unlabeled ATP and γ-^33P ATP was added to start the reaction (2×10^6 cpm of γ-^33P ATP per well (3000 Ci/mmole) and either 10 μM or 30 μM unlabeled ATP, typically. The reactions were carried out for 1 hour at room temperature with shaking. Plates were washed 7× with TBS, followed by the addition of 50 μl/well scintillation fluid (Wallac). Plates were read using a Wallac Trilux counter. This is only one format of such assays, various other formats are possible, as known to one of ordinary skill in the art.
Tyrosine kinase activity is determined by 1) measurement of kinase-dependent ATP consumption by in the presence of a generic substrate such as, polyglutamic acid, tyrosine, 4:1 (pEY), by luciferase/luciferin-mediated chemiluminescence or; 2) incorporation of radioactive phosphate derived from ^33P-ATP into a generic substrate which has been adsorbed onto the well surface of polystyrene microtiter plates. Phosphorylated substrate products are quantified by scintillation spectrometry.
as §1

For the next assay, the target named is IRK (Homo sapiens, UniProt P06213). The assay can be described thus: Kinase assay, IRK. It is filed as biochemical. The protocol: as §1

The structures appear in SMILES notation.

Chain of EphA2 (P29317 24-976, species assumed): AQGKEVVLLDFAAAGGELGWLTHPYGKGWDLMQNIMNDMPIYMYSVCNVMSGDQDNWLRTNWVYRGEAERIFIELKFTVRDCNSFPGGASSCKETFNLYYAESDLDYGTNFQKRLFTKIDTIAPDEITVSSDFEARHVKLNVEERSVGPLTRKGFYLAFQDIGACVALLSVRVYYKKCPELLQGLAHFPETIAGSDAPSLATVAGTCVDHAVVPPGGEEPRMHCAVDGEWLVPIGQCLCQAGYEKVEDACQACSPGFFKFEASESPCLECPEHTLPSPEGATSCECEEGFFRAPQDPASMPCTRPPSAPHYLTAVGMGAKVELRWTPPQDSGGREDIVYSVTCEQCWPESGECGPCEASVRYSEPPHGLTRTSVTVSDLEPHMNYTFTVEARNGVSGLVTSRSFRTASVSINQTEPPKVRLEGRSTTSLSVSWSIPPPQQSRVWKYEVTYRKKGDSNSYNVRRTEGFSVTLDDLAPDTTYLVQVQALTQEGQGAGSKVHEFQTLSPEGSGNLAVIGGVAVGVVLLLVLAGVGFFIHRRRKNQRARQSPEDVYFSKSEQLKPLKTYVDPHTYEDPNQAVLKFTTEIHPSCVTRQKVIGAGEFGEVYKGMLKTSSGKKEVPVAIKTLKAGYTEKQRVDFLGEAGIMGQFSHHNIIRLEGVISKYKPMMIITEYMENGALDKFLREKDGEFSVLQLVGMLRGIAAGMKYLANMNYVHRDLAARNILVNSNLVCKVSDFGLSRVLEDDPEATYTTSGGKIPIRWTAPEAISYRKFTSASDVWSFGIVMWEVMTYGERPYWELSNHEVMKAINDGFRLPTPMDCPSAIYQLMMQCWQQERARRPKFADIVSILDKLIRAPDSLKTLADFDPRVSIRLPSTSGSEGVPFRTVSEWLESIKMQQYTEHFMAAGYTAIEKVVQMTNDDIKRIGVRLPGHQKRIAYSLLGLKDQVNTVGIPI
T1 sequence (P35968 807-1356): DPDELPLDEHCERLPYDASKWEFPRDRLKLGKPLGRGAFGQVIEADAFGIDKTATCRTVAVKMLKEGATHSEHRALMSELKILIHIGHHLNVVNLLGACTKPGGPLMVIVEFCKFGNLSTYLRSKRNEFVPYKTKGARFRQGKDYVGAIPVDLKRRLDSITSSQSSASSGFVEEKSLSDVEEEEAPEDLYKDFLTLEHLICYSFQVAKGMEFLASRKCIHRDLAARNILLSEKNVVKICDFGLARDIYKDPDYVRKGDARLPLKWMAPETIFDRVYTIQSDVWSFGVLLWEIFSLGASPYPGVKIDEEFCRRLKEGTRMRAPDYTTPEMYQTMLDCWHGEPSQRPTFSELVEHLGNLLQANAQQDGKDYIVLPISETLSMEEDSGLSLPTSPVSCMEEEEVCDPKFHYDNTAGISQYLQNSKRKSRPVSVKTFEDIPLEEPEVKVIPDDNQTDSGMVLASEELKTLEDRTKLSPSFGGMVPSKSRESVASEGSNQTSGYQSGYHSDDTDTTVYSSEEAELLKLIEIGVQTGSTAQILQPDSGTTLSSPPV
Chain of PDGFR alpha (P16234 24-1089): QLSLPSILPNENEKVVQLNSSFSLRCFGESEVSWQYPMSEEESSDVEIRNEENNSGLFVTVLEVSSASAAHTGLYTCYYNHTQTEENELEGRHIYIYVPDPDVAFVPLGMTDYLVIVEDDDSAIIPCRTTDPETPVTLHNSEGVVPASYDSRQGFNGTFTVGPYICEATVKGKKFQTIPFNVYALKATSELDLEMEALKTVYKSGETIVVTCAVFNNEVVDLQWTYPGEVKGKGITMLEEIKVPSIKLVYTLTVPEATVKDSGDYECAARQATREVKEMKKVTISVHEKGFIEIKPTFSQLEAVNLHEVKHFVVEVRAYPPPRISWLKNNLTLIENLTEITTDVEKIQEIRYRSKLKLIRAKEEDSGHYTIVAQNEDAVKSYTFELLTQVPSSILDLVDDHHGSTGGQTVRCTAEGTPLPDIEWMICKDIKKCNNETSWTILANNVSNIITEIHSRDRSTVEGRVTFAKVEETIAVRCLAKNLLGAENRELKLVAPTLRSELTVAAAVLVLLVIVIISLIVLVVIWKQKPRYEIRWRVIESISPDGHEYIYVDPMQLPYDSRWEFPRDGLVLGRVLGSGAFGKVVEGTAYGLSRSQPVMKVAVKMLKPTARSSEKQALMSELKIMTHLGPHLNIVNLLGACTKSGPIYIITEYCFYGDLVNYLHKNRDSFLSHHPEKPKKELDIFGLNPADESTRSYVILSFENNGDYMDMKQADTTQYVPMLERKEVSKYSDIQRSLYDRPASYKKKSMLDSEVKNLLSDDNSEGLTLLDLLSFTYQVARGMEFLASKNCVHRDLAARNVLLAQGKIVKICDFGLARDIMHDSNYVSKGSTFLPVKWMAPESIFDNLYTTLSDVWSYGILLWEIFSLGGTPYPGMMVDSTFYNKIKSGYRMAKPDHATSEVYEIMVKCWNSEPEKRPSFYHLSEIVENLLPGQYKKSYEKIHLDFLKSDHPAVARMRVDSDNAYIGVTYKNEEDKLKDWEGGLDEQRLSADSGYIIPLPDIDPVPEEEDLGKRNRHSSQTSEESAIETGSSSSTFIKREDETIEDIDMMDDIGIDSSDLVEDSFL
Chain of Fyn (P06241 whole entry, species assumed): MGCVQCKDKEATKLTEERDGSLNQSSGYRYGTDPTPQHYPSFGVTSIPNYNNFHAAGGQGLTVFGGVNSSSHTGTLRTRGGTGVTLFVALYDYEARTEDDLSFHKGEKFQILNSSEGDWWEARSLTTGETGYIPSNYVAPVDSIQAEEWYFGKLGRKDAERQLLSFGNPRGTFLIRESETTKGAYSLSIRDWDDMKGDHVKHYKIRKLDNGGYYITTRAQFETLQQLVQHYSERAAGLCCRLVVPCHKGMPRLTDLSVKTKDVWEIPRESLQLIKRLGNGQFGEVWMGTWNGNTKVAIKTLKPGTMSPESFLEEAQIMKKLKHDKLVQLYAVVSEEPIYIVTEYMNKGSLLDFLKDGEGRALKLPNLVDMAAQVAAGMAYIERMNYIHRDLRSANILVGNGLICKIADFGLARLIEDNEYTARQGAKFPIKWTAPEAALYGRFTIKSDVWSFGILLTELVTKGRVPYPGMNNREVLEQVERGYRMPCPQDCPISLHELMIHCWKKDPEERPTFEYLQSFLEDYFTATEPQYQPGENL
Chain of Flt-1 (P17948 27-1338, species assumed): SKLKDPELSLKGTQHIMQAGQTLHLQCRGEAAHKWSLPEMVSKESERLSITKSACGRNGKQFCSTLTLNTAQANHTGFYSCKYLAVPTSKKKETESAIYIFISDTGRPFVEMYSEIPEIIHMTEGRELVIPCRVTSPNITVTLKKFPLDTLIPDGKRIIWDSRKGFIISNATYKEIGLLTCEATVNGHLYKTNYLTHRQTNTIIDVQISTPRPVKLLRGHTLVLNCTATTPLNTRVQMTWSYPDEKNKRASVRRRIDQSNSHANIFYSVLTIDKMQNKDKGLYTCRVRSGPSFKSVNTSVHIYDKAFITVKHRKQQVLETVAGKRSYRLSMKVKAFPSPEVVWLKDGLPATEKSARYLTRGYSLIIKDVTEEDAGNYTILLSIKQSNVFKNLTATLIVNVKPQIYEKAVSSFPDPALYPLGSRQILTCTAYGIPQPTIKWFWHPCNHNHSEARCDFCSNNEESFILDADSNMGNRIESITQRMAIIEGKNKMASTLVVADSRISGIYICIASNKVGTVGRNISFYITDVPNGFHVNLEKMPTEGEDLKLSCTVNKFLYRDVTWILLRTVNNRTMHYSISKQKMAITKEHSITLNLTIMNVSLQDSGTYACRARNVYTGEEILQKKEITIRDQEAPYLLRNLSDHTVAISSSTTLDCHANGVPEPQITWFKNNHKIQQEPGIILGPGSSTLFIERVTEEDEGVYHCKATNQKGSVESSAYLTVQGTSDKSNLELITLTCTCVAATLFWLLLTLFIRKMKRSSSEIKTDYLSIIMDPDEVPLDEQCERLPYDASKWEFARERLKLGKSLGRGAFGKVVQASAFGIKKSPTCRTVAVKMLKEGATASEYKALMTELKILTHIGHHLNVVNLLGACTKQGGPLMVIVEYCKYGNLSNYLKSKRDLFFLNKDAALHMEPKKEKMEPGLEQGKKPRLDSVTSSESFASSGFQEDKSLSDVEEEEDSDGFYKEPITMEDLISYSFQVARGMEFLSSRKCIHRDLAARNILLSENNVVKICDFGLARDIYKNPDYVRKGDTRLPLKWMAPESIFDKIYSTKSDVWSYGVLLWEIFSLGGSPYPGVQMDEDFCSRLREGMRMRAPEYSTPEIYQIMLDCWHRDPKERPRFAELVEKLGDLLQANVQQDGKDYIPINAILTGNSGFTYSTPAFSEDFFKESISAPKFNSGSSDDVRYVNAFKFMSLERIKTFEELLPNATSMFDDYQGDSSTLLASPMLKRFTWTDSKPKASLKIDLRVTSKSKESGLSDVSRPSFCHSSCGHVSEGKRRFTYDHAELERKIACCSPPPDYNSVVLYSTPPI

Take `CCN1CCC(Nc2ccc3c(c2)/C(=C(\c2ccc(Cl)cc2)c2nc4ccccc4[nH]2)C(=O)N3)CC1` [Entry 45, (3Z)-3-[1H-benzimidazol-2-yl(4-chlorophenyl)methylidene]-5-[(1-ethylpiperidin-4-yl)amino]-1,3-dihydro-2H-indol-2-one]: the IC50 against Fyn is < 50 nM; on PDGFR alpha, < 50 nM; against EGFR it was 50 to 500 nM; in assay [1], < 50 nM; against EphA2, 500 to 5000 nM; against FGFR1 it was 50 to 500 nM. Besides, the IC50 at Flt-1 is < 50 nM; against IRK it was 500 to 5000 nM.

For the compound `CCN1CCC(Oc2ccc3c(c2)/C(=C(\c2cccc(Cl)c2)c2ncc[nH]2)C(=O)N3)CC1` [Entry 44, (3Z)-3-[(3-chlorophenyl)(1H-imidazol-2-yl)methylidene]-5-[(1-ethylpiperidin-4-yl)oxy]-1,3-dihydro-2H-indol-2-one], the half-inhibitory concentration (IC50) against Fyn is 50 to 500 nM; at PDGFR alpha it was 50 to 500 nM; against EGFR, 500 to 5000 nM; in assay [1], < 50 nM; against EphA2, 500 to 5000 nM; on FGFR1, 50 to 500 nM. In addition, the IC50 at Flt-1 and on IRK was 500 to 5000 nM in each case.

As to `CCN1CCC(Nc2ccc3c(c2)/C(=C(\c2cccc(Cl)c2)c2ncc[nH]2)C(=O)N3)CC1` [Entry 48, (3Z)-3-[(3-chlorophenyl)(1H-imidazol-2-yl)methylidene]-5-[(1-ethylpiperidin-4-yl)amino]-1,3-dihydro-2H-indol-2-one], the IC50 at Fyn was < 50 nM; on PDGFR alpha, < 50 nM; against EGFR it was 50 to 500 nM; in assay [1], < 50 nM; against EphA2, 500 to 5000 nM; against FGFR1, < 50 nM. Also, the results for the IC50 at Flt-1 and at IRK were 50 to 500 nM and > 5000 nM, respectively.

Regarding `CCN1CCC(Nc2ccc3c(c2)/C(=C(\c2cccc(Cl)c2)c2nc4ccccc4[nH]2)C(=O)N3)CC1` [Entry 27, (3Z)-3-[1H-benzimidazol-2-yl(3-chlorophenyl)methylidene]-5-[(1-ethylpiperidin-4-yl)amino]-1,3-dihydro-2H-indol-2-one], the 50% inhibitory concentration (IC50) is < 50 nM against Fyn; < 50 nM at PDGFR alpha; 50 to 500 nM against EGFR; < 50 nM in assay [1]; 50 to 500 nM against EphA2; < 50 nM against FGFR1. Besides, the IC50 on Flt-1 is < 50 nM; against IRK, 50 to 500 nM.

For the compound `CCN1CCC(Nc2ccc3c(c2)/C(=C(\c2cccc(OC)c2)c2nc4ccccc4[nH]2)C(=O)N3)CC1` [Entry 26, (3Z)-3-{1H-benzimidazol-2-yl [3-(methyloxy)phenyl]methylidene}-5-[(1-ethylpiperidin-4-yl)amino]-1,3-dihydro-2H-indol-2-one], the IC50 is < 50 nM at Fyn; < 50 nM on PDGFR alpha; 50 to 500 nM at EGFR; < 50 nM in assay [1]; 500 to 5000 nM against EphA2; < 50 nM against FGFR1. Moreover, the IC50 was < 50 nM at Flt-1 and 500 to 5000 nM on IRK.

For `COCCN1CCC(Nc2ccc3c(c2)/C(=C(\c2cccc(F)c2)c2nc4ccccc4[nH]2)C(=O)N3)CC1` [Entry 46, (3Z)-3-[1H-benzimidazol-2-yl(3-fluorophenyl)methylidene]-5-({1-[2-(methyloxy)ethyl]piperidin-4-yl}amino)-1,3-dihydro-2H-indol-2-one], the IC50 on Fyn was < 50 nM; at PDGFR alpha, < 50 nM; at EGFR it was 50 to 500 nM; in assay [1] it was < 50 nM; on EphA2, 500 to 5000 nM; on FGFR1 it was 50 to 500 nM. In addition, the IC50 at Flt-1 is 50 to 500 nM; on IRK, 500 to 5000 nM.

Consider `COCCN1CCC(Oc2ccc3c(c2)/C(=C(\c2cccc(Cl)c2)c2nc4ccccc4[nH]2)C(=O)N3)CC1` [Entry 37, (3Z)-3-[1H-benzimidazol-2-yl(3-chlorophenyl)methylidene]-5-({1-[2-(methyloxy)ethyl]piperidin-4-yl)oxy)-1,3-dihydro-2H-indol-2-one], for which the IC50 on Fyn was < 50 nM; on PDGFR alpha, < 50 nM; against EGFR it was 50 to 500 nM; in assay [1] it was < 50 nM; at EphA2 it was 500 to 5000 nM; on FGFR1, 50 to 500 nM. For the same compound, the IC50 at Flt-1 and against IRK was 500 to 5000 nM in each case.

Consider `COCCN1CCC(Oc2ccc3c(c2)/C(=C(\c2cc(F)cc(F)c2)c2nc4ccccc4[nH]2)C(=O)N3)CC1` [Entry 36, (3Z)-3-[1H-benzimidazol-2-yl(3,5-difluorophenyl)methylidene]-5-({1-[2-(methyloxy)ethyl]piperidin-4-yl}oxy)-1,3-dihydro-2H-indol-2-one], for which the IC50 against Fyn was < 50 nM; on PDGFR alpha, < 50 nM; against EGFR it was 500 to 5000 nM; in assay [1], < 50 nM; on EphA2, 500 to 5000 nM; on FGFR1 it was 50 to 500 nM. Also, the IC50 on Flt-1 and against IRK was 500 to 5000 nM in each case.

Turning to `COCCN1CCC(Nc2ccc3c(c2)/C(=C(\c2cccc(OC)c2)c2nc4ccccc4[nH]2)C(=O)N3)CC1` [Entry 39, (3Z)-3-{1H-benzimidazol-2-yl[3-(methyloxy)phenyl]methylidene}-5-({1-[2-(methyloxy)ethyl]piperidin-4-yl}amino)-1,3-dihydro-2H-indol-2-one], the half-inhibitory concentration (IC50) was < 50 nM against Fyn; < 50 nM at PDGFR alpha; 500 to 5000 nM against EGFR; < 50 nM in assay [1]; 500 to 5000 nM at EphA2; < 50 nM against FGFR1. Moreover, the IC50 at Flt-1 fell in the range of 50 to 500 nM; against IRK, 500 to 5000 nM.

For `COCCN1CCC(Nc2ccc3c(c2)/C(=C(\c2cccc(Cl)c2)c2nc4ccccc4[nH]2)C(=O)N3)CC1` [Entry 38, (3Z)-3-[1H-benzimidazol-2-yl(3-chlorophenyl)methylidene]-5-({1-[2-(methyloxy)ethyl]piperidin-4-yl}amino)-1,3-dihydro-2H-indol-2-one], the IC50 against Fyn is < 50 nM; at PDGFR alpha, < 50 nM; against EGFR it was 500 to 5000 nM; in assay [1], < 50 nM; at EphA2, 500 to 5000 nM; on FGFR1 it was < 50 nM. The IC50 at Flt-1 was 50 to 500 nM; against IRK it was 500 to 5000 nM.

Regarding `COCCN1CCC(Nc2ccc3c(c2)/C(=C(\c2cc(F)cc(F)c2)c2nc4ccccc4[nH]2)C(=O)N3)CC1` [Entry 42], the IC50 against Fyn was < 50 nM; on PDGFR alpha, < 50 nM; against EGFR, 50 to 500 nM; in assay [1], < 50 nM; against EphA2, 500 to 5000 nM; at FGFR1, < 50 nM. Also, the half-maximal inhibitory concentration (IC50) on Flt-1 is 50 to 500 nM; against IRK it was > 5000 nM.

In the case of `COCCN1CCC(Nc2ccc3c(c2)/C(=C(\c2ccc(F)cc2)c2nc4ccccc4[nH]2)C(=O)N3)CC1` [Entry 47, (3Z)-3-[1H-benzimidazol-2-yl(4-fluorophenyl)methylidene]-5-({1-[2-(methyloxy)ethyl]piperidin-4-yl}amino)-1,3-dihydro-2H-indol-2-one], the IC50 against Fyn is 50 to 500 nM; at PDGFR alpha it was < 50 nM; against EGFR, 500 to 5000 nM; in assay [1], < 50 nM; at EphA2, 500 to 5000 nM; at FGFR1, 50 to 500 nM. Besides, the IC50 on Flt-1 and on IRK was 500 to 5000 nM in each case.

What is called IC50 is the concentration at which inhibition is half-maximal.
